Reference: paper PMC11859928, “Design, Synthesis, and Antiproliferative Activity of Novel Indole/1,2,4-Triazole Hybrids as Tubulin Polymerization Inhibitors” (Pharmaceuticals, 2025)

Experiments:
Test in all cases: NCI one-dose assay
SK-OV-3 = type: cell-based; details: Homo sapiens, SK-OV-3, Ovarian cancer, read-out: Cell growth inhibition %
SF-539 = type: cell-based; details: Homo sapiens, SF-539, CNS cancer, read-out: Cell growth inhibition %
NCI/ADR-RES = type: cell-based; details: Homo sapiens, Ovarian cancer, read-out: Cell growth inhibition %
HCC-2998 = type: cell-based; details: Homo sapiens, HCC-2998, Colon cancer, read-out: Cell growth inhibition %
NCI-H23 = type: cell-based; details: Homo sapiens, NCI-H23, Non-small cell lung cancer, read-out: Cell growth inhibition %
EKVX = type: cell-based; details: Homo sapiens, Non-small cell lung cancer, read-out: Cell growth inhibition %
HL-60(TB) = type: cell-based; details: Homo sapiens, Leukemia, read-out: Cell growth inhibition %
IGROV1 = type: cell-based; details: Homo sapiens, IGROV-1, IGROV1, Ovarian cancer, read-out: Cell growth inhibition %
HS 578 T = type: cell-based; details: Homo sapiens, Breast cancer, read-out: Cell growth inhibition %
MDA-MB-231/ATCC = type: cell-based; details: Homo sapiens, Breast cancer, read-out: Cell growth inhibition %
SR = type: cell-based; details: Homo sapiens, Leukemia, read-out: Cell growth inhibition %
SK-MEL-5 = type: cell-based; details: Homo sapiens, SK-MEL-5, Melanoma, read-out: Cell growth inhibition %
SF-268 = type: cell-based; details: Homo sapiens, SF-268, CNS cancer, read-out: Cell growth inhibition %
OVCAR-3 = type: cell-based; details: Homo sapiens, OVCAR-3, Ovarian cancer, read-out: Cell growth inhibition %
HT29 = type: cell-based; details: Homo sapiens, HT-29, HT29, Colon cancer, read-out: Cell growth inhibition %
NCI-H460 = type: cell-based; details: Homo sapiens, NCI-H460, Non-small cell lung cancer, read-out: Cell growth inhibition %
UACC-257 = type: cell-based; details: Homo sapiens, UACC-257, Melanoma, read-out: Cell growth inhibition %
OVCAR-5 = type: cell-based; details: Homo sapiens, OVCAR-5, Ovarian cancer, read-out: Cell growth inhibition %
SK-MEL-28 = type: cell-based; details: Homo sapiens, SK-MEL-28, Melanoma, read-out: Cell growth inhibition %
TK-10 = type: cell-based; details: Homo sapiens, TK-10, Renal cancer, read-out: Cell growth inhibition %
DU-145 = type: cell-based; details: Homo sapiens, DU-145, Prostate cancer, read-out: Cell growth inhibition %
SN12C = type: cell-based; details: Homo sapiens, Renal cancer, read-out: Cell growth inhibition %
T-47D = type: cell-based; details: Homo sapiens, T47D, Breast cancer, read-out: Cell growth inhibition %
SNB-19 = type: cell-based; details: Homo sapiens, SNB-19, CNS cancer, read-out: Cell growth inhibition %
OVCAR-4 = type: cell-based; details: Homo sapiens, OVCAR-4, Ovarian cancer, read-out: Cell growth inhibition %
U251 = type: cell-based; details: Homo sapiens, U-251, U251, CNS cancer, read-out: Cell growth inhibition %
M14 = type: cell-based; details: Homo sapiens, M14, Melanoma, read-out: Cell growth inhibition %
SW-620 = type: cell-based; details: Homo sapiens, SW-620, Colon cancer, read-out: Cell growth inhibition %
K-562 = type: cell-based; details: Homo sapiens, K562, K-562, Leukemia, read-out: Cell growth inhibition %
A549/ATCC = type: cell-based; details: Homo sapiens, Non-small cell lung cancer, read-out: Cell growth inhibition %
NCI-H522 = type: cell-based; details: Homo sapiens, NCI-H522, Non-small cell lung cancer, read-out: Cell growth inhibition %
MALME-3M = type: cell-based; details: Homo sapiens, Melanoma, read-out: Cell growth inhibition %
OVCAR-8 = type: cell-based; details: Homo sapiens, OVCAR-8, Ovarian cancer, read-out: Cell growth inhibition %
UO-31 = type: cell-based, human; details: Homo sapiens, UO-31, UO-31, Renal cancer, read-out: Cell growth inhibition %
HOP-92 = type: cell-based, human; details: Homo sapiens, HOP-92, HOP-92, Non-small cell lung cancer, read-out: Cell growth inhibition %
786-0 = type: cell-based, human; details: Homo sapiens, 786-0, 786-0, Renal cancer, read-out: Cell growth inhibition %

Row | SMILES | inhibition at 10 µM (SK-OV-3) | inhibition at 10 µM (SF-539) | inhibition at 10 µM (NCI/ADR-RES) | inhibition at 10 µM (HCC-2998) | inhibition at 10 µM (NCI-H23) | inhibition at 10 µM (EKVX) | inhibition at 10 µM (HL-60(TB)) | inhibition at 10 µM (IGROV1) | inhibition at 10 µM (HS 578 T) | inhibition at 10 µM (MDA-MB-231/ATCC) | inhibition at 10 µM (SR) | inhibition at 10 µM (SK-MEL-5) | inhibition at 10 µM (SF-268) | inhibition at 10 µM (OVCAR-3) | inhibition at 10 µM (HT29) | inhibition at 10 µM (NCI-H460) | inhibition at 10 µM (UACC-257) | inhibition at 10 µM (OVCAR-5) | inhibition at 10 µM (SK-MEL-28) | inhibition at 10 µM (TK-10) | further results
1 | O=C(CSc1nnc(-c2c[nH]c3ccccc23)n1-c1ccccc1)c1ccc(Br)cc1 [Compound 6i, 2-((5-(1H-Indol-3-yl)-4-phenyl-4H-1,2,4-triazol-3-yl)thio)-1-(4-bromophenyl) Ethenone] | 51.4% | 38% | 100% | 68.3% | 46% | 89.2% | 55.5% | 35.9% | 47.7% | 34% | 9.15% | 82.8% | 50.9% | 57.5% | 42.6% | 65.5% | 47.5% | 41.7% | 65.1% | 35.1% | inhibition at 10 µM (DU-145): 41.5%; inhibition at 10 µM (SN12C): 27.1%; inhibition at 10 µM (T-47D): 78%; inhibition at 10 µM (SNB-19): 29.8%; inhibition at 10 µM (OVCAR-4): 53.8%; inhibition at 10 µM (U251): 38.4%; inhibition at 10 µM (M14): 49%; inhibition at 10 µM (SW-620): 20.2%; inhibition at 10 µM (K-562): 18%; inhibition at 10 µM (A549/ATCC): 70.1%; inhibition at 10 µM (NCI-H522): 53.7%; inhibition at 10 µM (MALME-3M): 29%; inhibition at 10 µM (OVCAR-8): 56.5%; inhibition at 10 µM (UO-31): 74%; inhibition at 10 µM (HOP-92): 71.9%; inhibition at 10 µM (786-0): 17.6%
2 | C=CCn1c(SCC(=O)c2ccc(Cl)cc2)nnc1-c1c[nH]c2ccccc12 [Compound 6e, 2-((4-Allyl-5-(1H-indol-3-yl)-4H-1,2,4-triazol-3-yl)thio)-1-(4-chlorophenyl)ethenone] | -20.6% | 0.21% | -2.31% | -15.6% | -7.09% | 8.21% | 10.8% | 7.38% | -3.65% | 8.19% | 12.2% | 3.94% | -4.81% | -12.2% | -7.4% | -3.47% | 2.2% | -5.38% | -10.1% | -24.3% | inhibition at 10 µM (DU-145): -14.4%; inhibition at 10 µM (SN12C): 4.38%; inhibition at 10 µM (T-47D): 3.25%; inhibition at 10 µM (SNB-19): 0.6%; inhibition at 10 µM (OVCAR-4): -8%; inhibition at 10 µM (U251): 3.75%; inhibition at 10 µM (M14): 6.76%; inhibition at 10 µM (SW-620): -2.66%; inhibition at 10 µM (K-562): 10.1%; inhibition at 10 µM (A549/ATCC): 3.63%; inhibition at 10 µM (NCI-H522): 7.55%; inhibition at 10 µM (MALME-3M): 9.28%; inhibition at 10 µM (OVCAR-8): 9.77%; inhibition at 10 µM (UO-31): 28.5%; inhibition at 10 µM (HOP-92): 21%; inhibition at 10 µM (786-0): 3.55%
3 | O/N=C(\CSc1nnc(-c2c[nH]c3ccccc23)n1-c1ccccc1)c1ccccc1 [Compound 7f, (Z)-2-((5-(1H-Indol-3-yl)-4-phenyl-4H-1,2,4-triazol-3-yl)thio)-1-phenylethanone Oxime] | 30.6% | 22.9% | 44.7% | 43.3% | 45.8% | 73.6% | 75.3% | 41.8% | 33.3% | 31.3% | 43.8% | 84.1% | 23.1% | 45% | 50.7% | 66% | 20.1% | 14.3% | 45.5% | 34% | inhibition at 10 µM (DU-145): 40.2%; inhibition at 10 µM (SN12C): 42.6%; inhibition at 10 µM (T-47D): 80.2%; inhibition at 10 µM (SNB-19): 48.5%; inhibition at 10 µM (OVCAR-4): 62.2%; inhibition at 10 µM (U251): 46.2%; inhibition at 10 µM (M14): 54.2%; inhibition at 10 µM (SW-620): 47.2%; inhibition at 10 µM (K-562): 67.6%; inhibition at 10 µM (A549/ATCC): 46.9%; inhibition at 10 µM (NCI-H522): 46.2%; inhibition at 10 µM (MALME-3M): 23.9%; inhibition at 10 µM (OVCAR-8): 43.2%; inhibition at 10 µM (UO-31): 71.6%; inhibition at 10 µM (HOP-92): 82.7%; inhibition at 10 µM (786-0): 17.9%
4 | C=CCn1c(SC/C(=N\O)c2ccc(Br)cc2)nnc1-c1c[nH]c2ccccc12 [Compound 7d, (Z)-2-((4-allyl-5-(1H-indol-3-yl)-4H-1,2,4-triazol-3-yl)thio)-1-(4-bromophenyl) Ethanone Oxime] | 3.28% | 14% | 6.71% | -3.65% | 17.9% | 25.8% | 35.7% | 30.8% | 22.1% | 23.6% | 28.5% | 40.9% | 4.98% | -3.34% | 3.35% | 19.7% | -1.32% | 6.82% | 7.82% | 12.9% | inhibition at 10 µM (DU-145): 6.21%; inhibition at 10 µM (SN12C): 16.3%; inhibition at 10 µM (T-47D): 39.8%; inhibition at 10 µM (SNB-19): 8.36%; inhibition at 10 µM (OVCAR-4): 24.5%; inhibition at 10 µM (U251): 5.15%; inhibition at 10 µM (M14): 19.2%; inhibition at 10 µM (SW-620): 7.31%; inhibition at 10 µM (K-562): 40.8%; inhibition at 10 µM (A549/ATCC): 9.17%; inhibition at 10 µM (NCI-H522): 18.5%; inhibition at 10 µM (MALME-3M): 4.84%; inhibition at 10 µM (OVCAR-8): 18.3%; inhibition at 10 µM (UO-31): 38.3%; inhibition at 10 µM (HOP-92): 21%; inhibition at 10 µM (786-0): 13.4%
